Results on 24 molecules are retold here after US9707233B2, “Heterocyclylamines as PI3K inhibitors” (Incyte Corporation, priority 2011, dated 2017).

In this assay the target is PI3Kδ (p110δ/p85α) (Homo sapiens (Human), UniProt O00329). The assay can be described thus: PI3Kδ scintillation proximity assay (Example A3). The assay is classed as biochemical. The following applies: 20 μM ATP, 20 μM PIP2, 4 nM PI3Kδ; read-out: PI3Kδ SPA IC50. As to the method:
[γ-^33P]ATP (10 mCi/mL) was purchased from Perkin-Elmer (Waltham, Mass.). […] PI3Kδ (p110δ/p85α) was purchased from Millipore (Bedford, Mass.). ATP, MgCl2, DTT, EDTA, MOPS and CHAPS were purchased from Sigma-Aldrich (St. Louis, Mo.). Wheat Germ Agglutinin (WGA) YSi SPA Scintillation Beads was purchased from GE healthcare life sciences (Piscataway, N.J.).
The kinase reaction was conducted in polystyrene 384-well matrix white plate from Thermo Fisher Scientific in a final volume of 25 μL. Inhibitors were first diluted serially in DMSO and added to the plate wells before the addition of other reaction components. The final concentration of DMSO in the assay was 0.5%. The PI3K assays were carried out at room temperature in 20 mM MOPS, pH 6.7, 10 mM MgCl2, 5 mM DTT and CHAPS 0.03%. Reactions were initiated by the addition of ATP, the final reaction mixture consisted of 20 μM PIP2, 20 μM ATP, 0.2 μCi [γ-^33P]ATP, 4 nM PI3Kδ. […] 25 mM EDTA, 400 μM ATP. The final concentration of SPA beads was 1.0 mg/mL. After the plate sealing, plates were shaken overnight at room temperature and centrifuged at 1800 rpm for 10 minutes, the radioactivity of the product was determined by scintillation counting on Topcount (Perkin-Elmer). IC50 determination was performed by fitting the curve of percent control activity versus the log of the inhibitor concentration using the GraphPad Prism 3.0 software.
For orientation: In a scintillation proximity assay essentially only radioactivity close to the scintillant gives light.

Structures can show the parent of a compound that is named as a salt. A value given as a limit tells only on which side of the number the result lay.

Chain of PI3Kδ (p110δ/p85α) (O00329 whole entry): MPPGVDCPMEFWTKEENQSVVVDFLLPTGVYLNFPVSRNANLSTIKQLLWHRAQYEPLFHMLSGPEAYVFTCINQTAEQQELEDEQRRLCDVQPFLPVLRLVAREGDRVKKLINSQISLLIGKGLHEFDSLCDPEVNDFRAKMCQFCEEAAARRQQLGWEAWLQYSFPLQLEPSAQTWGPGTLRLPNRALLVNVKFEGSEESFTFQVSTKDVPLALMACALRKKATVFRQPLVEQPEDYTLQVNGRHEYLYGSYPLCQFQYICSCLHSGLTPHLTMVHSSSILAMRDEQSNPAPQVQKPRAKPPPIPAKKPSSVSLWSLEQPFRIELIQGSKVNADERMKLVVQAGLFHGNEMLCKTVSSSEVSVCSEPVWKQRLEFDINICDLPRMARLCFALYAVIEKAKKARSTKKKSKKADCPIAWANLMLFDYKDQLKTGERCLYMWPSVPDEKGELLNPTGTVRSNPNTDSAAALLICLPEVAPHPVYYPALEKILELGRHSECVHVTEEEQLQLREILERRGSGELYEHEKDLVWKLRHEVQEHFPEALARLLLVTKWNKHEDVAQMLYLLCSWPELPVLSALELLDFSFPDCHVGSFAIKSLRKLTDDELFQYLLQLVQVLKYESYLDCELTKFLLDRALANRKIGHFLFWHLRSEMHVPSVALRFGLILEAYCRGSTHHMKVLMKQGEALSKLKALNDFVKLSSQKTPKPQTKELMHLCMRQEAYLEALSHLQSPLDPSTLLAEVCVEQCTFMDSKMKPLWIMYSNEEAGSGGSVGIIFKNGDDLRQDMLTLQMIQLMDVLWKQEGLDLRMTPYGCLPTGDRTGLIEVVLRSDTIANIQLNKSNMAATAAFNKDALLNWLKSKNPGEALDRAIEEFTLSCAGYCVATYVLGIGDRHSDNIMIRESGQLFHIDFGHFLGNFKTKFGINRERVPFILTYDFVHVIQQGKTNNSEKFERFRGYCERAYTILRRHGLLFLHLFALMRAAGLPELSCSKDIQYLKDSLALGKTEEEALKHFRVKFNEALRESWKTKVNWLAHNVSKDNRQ
Chain of PI3Kδ (p110δ/p85α) (P27986 whole entry partner): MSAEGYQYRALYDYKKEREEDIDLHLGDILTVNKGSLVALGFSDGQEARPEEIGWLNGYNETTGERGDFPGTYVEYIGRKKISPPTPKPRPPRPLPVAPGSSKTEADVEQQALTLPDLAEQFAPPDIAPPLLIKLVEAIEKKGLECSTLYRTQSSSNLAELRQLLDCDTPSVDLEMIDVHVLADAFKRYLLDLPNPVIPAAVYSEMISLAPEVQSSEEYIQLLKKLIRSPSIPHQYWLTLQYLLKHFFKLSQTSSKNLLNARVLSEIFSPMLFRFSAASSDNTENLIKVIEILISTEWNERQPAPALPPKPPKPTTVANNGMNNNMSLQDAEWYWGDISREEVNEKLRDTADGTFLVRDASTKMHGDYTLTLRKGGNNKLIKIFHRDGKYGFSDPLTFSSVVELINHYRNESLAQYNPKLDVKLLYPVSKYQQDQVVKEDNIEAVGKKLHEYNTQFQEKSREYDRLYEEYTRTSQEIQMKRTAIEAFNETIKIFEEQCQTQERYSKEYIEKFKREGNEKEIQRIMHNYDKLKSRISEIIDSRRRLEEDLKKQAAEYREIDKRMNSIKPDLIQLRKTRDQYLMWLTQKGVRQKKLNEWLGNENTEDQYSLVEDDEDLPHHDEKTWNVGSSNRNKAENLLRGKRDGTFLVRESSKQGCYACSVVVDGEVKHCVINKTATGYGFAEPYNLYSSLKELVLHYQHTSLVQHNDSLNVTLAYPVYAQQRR

What is called IC50 is the concentration that gives 50% inhibition. On to `CCOc1c(C(C)n2nc(C)c3c(N)ncnc32)cc(Cl)c(C#N)c1C1CN(C(=O)CC)C1` (single isomer, unassigned) [Example 243, 4-[1-(4-Amino-3-methyl-1H-pyrazolo[3,4-d]pyrimidin-1-yl)ethyl]-6-chloro-3-ethoxy-2-(1-propionylazetidin-3-yl)benzonitrile], for which the concentration for half-maximal inhibition (IC50) was ≤ 10 nM.
Regarding `COc1c(C(C)n2ncc3c(N)ncnc32)cc(Cl)c(C)c1-c1ccnc(C(=O)NCCO)c1` (racemic) [Example 39, 4-{3-[1-(4-amino-1H-pyrazolo[3,4-d]pyrimidin-1-yl)ethyl]-5-chloro-2-methoxy-6-methylphenyl}-N-(2-hydroxyethyl)pyridine-2-carboxamide], the 50% inhibitory concentration (IC50) fell in the range of 50 to 200 nM.
The same measure for `COc1c(C(C)n2nc(C)c3c(N)ncnc32)cc(Cl)c(C)c1-c1cncc(C(=O)N(C)CCO)c1` (single isomer, unassigned) [Example 175, 5-{3-[1-(4-amino-3-methyl-1H-pyrazolo[3,4-d]pyrimidin-1-yl)ethyl]-5-chloro-2-methoxy-6-methylphenyl}-N-(2-hydroxyethyl)-N-methylnicotinamide]: ≤ 10 nM.
For the molecule `CCOc1c(C(C)n2nc(C)c3c(N)ncnc32)cc(C)c(C#N)c1C1CN(CC(C)O)C1` (stereo in doubt) [Example 326, 4-[1-(4-amino-3-methyl-1H-pyrazolo[3,4-d]pyrimidin-1-yl)ethyl]-3-ethoxy-2-{1-[(2S)-2-hydroxypropyl]azetidin-3-yl}-6-methylbenzonitrile], the IC50 is ≤ 10 nM.
As to `CCOc1c(C(C)n2nc(C)c3c(N)ncnc32)cc(Cl)c(F)c1C1CNC(=O)O1` (single isomer, unassigned) [Example 355, 5-{3-[1-(4-amino-3-methyl-1H-pyrazolo[3,4-d]pyrimidin-1-yl)ethyl]-5-chloro-2-ethoxy-6-fluorophenyl}-1,3-oxazolidin-2-one], the IC50 lay within 50 to 200 nM.
Take `COc1c(C(C)n2ccc(=O)c3c(N)ncnc32)cc(Cl)c(C)c1-c1cncc(F)c1` (racemic) [Example 31, 4-Amino-8-{1-[5-chloro-3-(5-fluoropyridin-3-yl)-2-methoxy-4-methylphenyl]ethyl}pyrido[2,3-d]pyrimidin-5(8H)-one bis(trifluoroacetate)]: the IC50 is ≤ 10 nM.
For `COc1c(C(C)n2nc(C)c3c(N)ncnc32)cc(Cl)c(C)c1-c1ccnc(C(=O)N(C)CCO)c1` (racemic) [Example 19, 4-{3-[1-(4-amino-3-methyl-1H-pyrazolo[3,4-d]pyrimidin-1-yl)ethyl]-5-chloro-2-methoxy-6-methylphenyl}-N-(2-hydroxyethyl)-N-methylpyridine-2-carboxamide], the IC50 was ≤ 10 nM.
In the case of `CCOc1c(C(C)n2nc(C)c3c(N)ncnc32)cc(Cl)c(F)c1C1COC(=O)N1` (single isomer, unassigned) [Example 354, 4-{3-[1-(4-amino-3-methyl-1H-pyrazolo[3,4-d]pyrimidin-1-yl)ethyl]-5-chloro-2-ethoxy-6-fluorophenyl}-1,3-oxazolidin-2-one], the IC50 was ≤ 10 nM.
On to `CCOc1c(C(C)n2nc(C)c3c(N)ncnc32)cc(Cl)c(C#N)c1C1CNC(=O)O1` (single isomer, unassigned) [323 (4th peak), 4-[1-(4-amino-3-methyl-1H-pyrazolo[3,4-d]pyrimidin-1-yl)ethyl]-6-chloro-3-ethoxy-2-(2-oxo-1,3-oxazolidin-5-yl)benzonitrile], for which the IC50 is ≤ 10 nM.
For the molecule `CCOc1c(C(C)n2nc(C)c3c(N)ncnc32)cc(Cl)c(F)c1C1CNC(=O)O1` (single isomer, unassigned) [Example 356, 5-{3-[1-(4-amino-3-methyl-1H-pyrazolo[3,4-d]pyrimidin-1-yl)ethyl]-5-chloro-2-ethoxy-6-fluorophenyl}-1,3-oxazolidin-2-one], the IC50 was 50 to 200 nM.
Regarding `COc1c(C(C)n2nc(C)c3c(N)ncnc32)cc(Cl)c(C)c1-c1ccc(N)nc1` (single isomer, unassigned) [Example 171, 1-(1-(3-(6-aminopyridin-3-yl)-5-chloro-2-methoxy-4-methylphenyl)ethyl)-3-methyl-1H-pyrazolo[3,4-d]pyrimidin-4-amine], the IC50 was ≤ 10 nM.
Regarding `CCOc1c(C(C)n2nc(C)c3c(N)ncnc32)cc(C)c(C#N)c1-c1cncc(S(C)(=O)=O)c1` (single isomer, unassigned) [Example 335, 4-[1-(4-amino-3-methyl-1H-pyrazolo[3,4-d]pyrimidin-1-yl)ethyl]-3-ethoxy-6-methyl-2-[5-(methylsulfonyl)pyridin-3-yl]benzonitrile], the half-inhibitory concentration (IC50) is ≤ 10 nM.
The same measure for `COc1c(C(C)n2nc(C)c3c(N)ncnc32)cc(Cl)c(C)c1C1CN(C(=O)[C@@H](C)O)C1` (stereo partly drawn) [Example 121, (2R)-1-(3-{3-[1-(4-Amino-3-methyl-1H-pyrazolo[3,4-d]pyrimidin-1-yl)ethyl]-5-chloro-2-methoxy-6-methylphenyl}azetidin-1-yl)-1-oxopropan-2-ol trifluoroacetate]: ≤ 10 nM.
Turning to `COc1c(C(C)n2nc(C)c3c(N)ncnc32)cc(Cl)c(C)c1-c1cnc(N)nc1` (single isomer, unassigned) [Example 169, 1-(1-(3-(2-aminopyrimidin-5-yl)-5-chloro-2-methoxy-4-methylphenyl)ethyl)-3-methyl-1H-pyrazolo[3,4-d]pyrimidin-4-amine], the IC50 is ≤ 10 nM.
`COc1c(C(C)n2nc(C)c3c(N)ncnc32)cc(Cl)c(C)c1-c1cnn(CC(=O)N(C)C)c1` (single isomer, unassigned) [Example 206, 2-(4-(3-(1-(4-amino-3-methyl-1H-pyrazolo[3,4-d]pyrimidin-1-yl)ethyl)-5-chloro-2-methoxy-6-methylphenyl)-1H-pyrazol-1-yl)-N,N-dimethylacetamide]: the IC50 was ≤ 10 nM.
As for `COc1c(C(C)n2nc(C)c3c(N)ncnc32)cc(Cl)c(C)c1-c1ccnc(N2CC(O)C2)c1` (single isomer, unassigned) [Example 187, 1-(4-(3-(1-(4-amino-3-methyl-1H-pyrazolo[3,4-d]pyrimidin-1-yl)ethyl)-5-chloro-2-methoxy-6-methylphenyl)pyridin-2-yl)azetidin-3-ol], the IC50 was ≤ 10 nM.
For `CCOc1c(C(C)n2nc(C)c3c(N)ncnc32)cc(Cl)c(C#N)c1-c1cncc(C#N)c1` (single isomer, unassigned) [Example 330, 5-{3-[1-(4-amino-3-methyl-1H-pyrazolo[3,4-d]pyrimidin-1-yl)ethyl]-5-chloro-6-cyano-2-ethoxyphenyl}nicotinonitrile], the half-maximal inhibitory concentration (IC50) was ≤ 10 nM.
Consider `CCOc1c(C(C)n2nc(C)c3c(N)ncnc32)cc(Cl)c(F)c1C1CNC(=O)C1` (single isomer, unassigned) [Example 347, 4-{3-[1-(4-amino-3-methyl-1H-pyrazolo[3,4-d]pyrimidin-1-yl)ethyl]-5-chloro-2-ethoxy-6-fluorophenyl}pyrrolidin-2-one], for which the IC50 is ≤ 10 nM.
As to `CCOc1c(C(C)n2nc(CF)c3c(N)ncnc32)cc(Cl)c(C)c1-c1ccc(C(=O)N(C)C)nc1` (racemic) [Example 86, 5-(3-{1-[4-Amino-3-(fluoromethyl)-1H-pyrazolo[3,4-d]pyrimidin-1-yl]ethyl}-5-chloro-2-ethoxy-6-methylphenyl)-N,N-dimethylpyridine-2-carboxamide bis(trifluoroacetate)], the IC50 is ≤ 10 nM.
Turning to “2-(4-(3-(1-(4-Amino-3-methyl-1H-pyrazolo[3,4-d]pyrimidin-1-yl)ethyl)-5-chloro-2-ethoxy-6-methylphenyl)-1H-pyrazol-1-yl) acetamide [Example 203]”, the IC50 is ≤ 10 nM.
For `COc1c(C(C)n2nc(C)c3c(N)ncnc32)cc(Cl)c(C#N)c1C1CN(C(=O)OC(C)C)C1` (single isomer, unassigned) [Example 291, Isopropyl 3-{3-[1-(4-amino-3-methyl-1H-pyrazolo[3,4-d]pyrimidin-1-yl)ethyl]-5-chloro-6-cyano-2-methoxyphenyl}azetidine-1-carboxylate] the value was ≤ 10 nM; for `CCN1CC(c2c(Cl)c(Cl)cc(C(C)n3nc(C)c4c(N)ncnc43)c2OC)C1` (single isomer, unassigned) [Example 298, 1-{1-[4,5-Dichloro-3-(1-ethylazetidin-3-yl)-2-methoxyphenyl]ethyl}-3-methyl-1H-pyrazolo[3,4-d]pyrimidin-4-amine], ≤ 10 nM; for `CCOc1c(C(C)n2nc(C)c3c(N)ncnc32)cc(Cl)c(C#N)c1-c1cncc(C(=O)N(C)C)c1` (single isomer, unassigned) [Example 331, 5-{3-[1-(4-amino-3-methyl-1H-pyrazolo[3,4-d]pyrimidin-1-yl)ethyl]-5-chloro-6-cyano-2-ethoxyphenyl}-N,N-dimethylnicotinamide], ≤ 10 nM.
On to `CCOc1c(C(C)n2nc(C(F)F)c3c(N)ncnc32)cc(Cl)c(F)c1C1CN(C)C1` (racemic) [Example 151, 1-{1-[5-Chloro-2-ethoxy-4-fluoro-3-(1-methylazetidin-3-yl)phenyl]ethyl}-3-(difluoromethyl)-1H-pyrazolo[3,4-d]pyrimidin-4-amine], for which the IC50 was ≤ 10 nM.
